The values below come from patent publication US20190352276A1, “INHIBITORS OF BRUTON'S TYROSINE KINASE” (Joint Stock Company "Biocad", priority 2016, published 2019).

A short description of the series: Chemical stability in artificial gastric fluid (SGF without enzymes). Further: time not given here. The following applies: 10 μM in SGF without enzymes, pH=1.4, 37° C.
`C=CC(=O)N1CCC[C@@H](n2nc(-c3ccc(Oc4cccnc4C#N)cc3)c3cncc(Cl)c32)C1` [BCD-BTK -218, 3-(4-{7-chloro-1-[1-(prop-2-enoyl)piperidin-3-yl]-1H-pyrazolo[4,3-c]pyridin-3-yl}phenoxy)pyridine-2-carbonitrile]: the “Amount of substance in the sample in % (chemical stability)” value is recorded as 96%.
Next, `C=CC(=O)N1CCC[C@@H](Cn2nc(-c3ccc(C(=O)Nc4ccccn4)cc3)c3cncc(Cl)c32)C1` [BCD-BTK-279, (R)-4-(1-((1-acryloylpiperidin-3-yl)methyl)-7-chloro-1H-pyrazolo[4,3-c]pyridin-3-yl)-N-(pyridin-2-yl)benzamide]: 100%; `C=CC(=O)N1CCC[C@@H](n2nc(-c3cnc(-n4ccc(=O)c(C#N)c4)nc3)c3cncc(Cl)c32)C1` [BCD-BTK -206, (R)-1-(5-(1-(1-acryloylpiperidin-3-yl)-7-chloro-1H-pyrazolo[4,3-c]pyridin-3-yl)pyrimidin-2-yl)-4-oxo-1,4-dihydropyridine-3-carbonitrile]: 100%.
As for `CC#CC(=O)N1CC[C@@H](n2nc(-c3ccc(C(=O)Nc4ccccn4)cc3)c3cncc(Cl)c32)C1` [BCD-BTK-262, (R)-4-(1-(1-(but-2-ynoyl)pyrrolidin-3-yl)-7-chloro-1H-pyrazolo[4,3-c]pyridin-3-yl)-N-(pyridin-2-yl)benzamide], the “Amount of substance in the sample in % (chemical stability)” value is recorded as 100%.
